Measurements published in ChEMBL document CHEMBL1201862, “PubChem BioAssay data set” (2004).
Structures can show the parent of a compound that is named as a salt. Activity calls are given as the source filed them.

How the values were obtained:
[1] = target: 72 kDa type IV collagenase (Homo sapiens, UniProt P08253); assay: Dose Response validation of uHTS RPN11 inhibitor hits using a MMP-2 Fluorescence assay.; type: functional
[2] = target: Protein-tyrosine kinase 2-beta (Homo sapiens, UniProt Q14289);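 note: potency of inhibitors of PYK2 kinase phosphorylation of poly-GT substrate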
Sequence of Protein-tyrosine kinase 2-beta (Q14289 whole entry): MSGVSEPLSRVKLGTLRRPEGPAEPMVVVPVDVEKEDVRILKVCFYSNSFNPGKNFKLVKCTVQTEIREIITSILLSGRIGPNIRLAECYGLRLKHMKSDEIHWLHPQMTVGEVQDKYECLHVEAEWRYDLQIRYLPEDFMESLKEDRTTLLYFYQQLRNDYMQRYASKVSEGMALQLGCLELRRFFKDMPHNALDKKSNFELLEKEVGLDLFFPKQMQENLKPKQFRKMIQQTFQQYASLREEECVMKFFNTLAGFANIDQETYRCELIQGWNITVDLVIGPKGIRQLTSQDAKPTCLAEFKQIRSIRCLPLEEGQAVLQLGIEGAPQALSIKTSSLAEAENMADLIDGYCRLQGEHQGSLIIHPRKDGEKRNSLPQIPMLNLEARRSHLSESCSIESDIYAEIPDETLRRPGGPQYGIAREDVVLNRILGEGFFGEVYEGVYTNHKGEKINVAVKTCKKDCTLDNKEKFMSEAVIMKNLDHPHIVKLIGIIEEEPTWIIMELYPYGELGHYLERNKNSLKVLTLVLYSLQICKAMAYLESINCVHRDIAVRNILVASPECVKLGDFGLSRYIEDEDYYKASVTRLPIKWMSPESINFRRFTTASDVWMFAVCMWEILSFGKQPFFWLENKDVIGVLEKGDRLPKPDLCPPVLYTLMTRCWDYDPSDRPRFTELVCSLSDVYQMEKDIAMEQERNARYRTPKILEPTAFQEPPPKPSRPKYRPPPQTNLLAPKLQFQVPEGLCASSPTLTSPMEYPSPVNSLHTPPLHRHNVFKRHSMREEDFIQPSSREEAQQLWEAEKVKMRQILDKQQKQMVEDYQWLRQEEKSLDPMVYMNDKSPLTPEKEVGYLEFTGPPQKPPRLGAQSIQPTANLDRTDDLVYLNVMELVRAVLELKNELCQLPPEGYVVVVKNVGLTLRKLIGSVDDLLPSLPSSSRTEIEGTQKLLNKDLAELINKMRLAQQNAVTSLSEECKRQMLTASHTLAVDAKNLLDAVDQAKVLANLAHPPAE

[3] = Luminescence Cell-Based Dose Retest to Confirm Inhibitors of Cancer Stem Cells. [Related pubchem assays (depositor defined):AID2717, AID2721]; type: functional; conditions: Homo sapiens
[4] = target: 26S proteasome non-ATPase regulatory subunit 14 (Homo sapiens, UniProt O00487); assay: inhibition of proteasome subunit RPN11 – biochemical, fluorescence polarization, uHTS hits, confirmation (AID 602368); type: functional
Prothrombin = Prothrombin (Bos taurus, UniProt P00735); assay: thrombin protease inhibitors – biochemical, fluorescence polarization, uHTS hits, dose response (AID 602369); type: functional
A-375 = assay: proliferation inhibition in MITF-low A375 cells – cell-based, cherry-pick samples, set 2, counter-screen for MITF modulator project, dose response (AID 540335); type: functional; conditions: Homo sapiens
[5] = viability of HCT116 lacking mutant beta-catenin – cell-based, human colon tumor, dose response (AID 1045); type: functional;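 note: HCT116 colon tumor cells with beta catenin knocked out; cells exposed to compound for 60 hours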
[6] = target: T1, Apoptotic protease-activating factor 1 (Homo sapiens, UniProt O14727); type: functional
T1 sequence (O14727 whole entry): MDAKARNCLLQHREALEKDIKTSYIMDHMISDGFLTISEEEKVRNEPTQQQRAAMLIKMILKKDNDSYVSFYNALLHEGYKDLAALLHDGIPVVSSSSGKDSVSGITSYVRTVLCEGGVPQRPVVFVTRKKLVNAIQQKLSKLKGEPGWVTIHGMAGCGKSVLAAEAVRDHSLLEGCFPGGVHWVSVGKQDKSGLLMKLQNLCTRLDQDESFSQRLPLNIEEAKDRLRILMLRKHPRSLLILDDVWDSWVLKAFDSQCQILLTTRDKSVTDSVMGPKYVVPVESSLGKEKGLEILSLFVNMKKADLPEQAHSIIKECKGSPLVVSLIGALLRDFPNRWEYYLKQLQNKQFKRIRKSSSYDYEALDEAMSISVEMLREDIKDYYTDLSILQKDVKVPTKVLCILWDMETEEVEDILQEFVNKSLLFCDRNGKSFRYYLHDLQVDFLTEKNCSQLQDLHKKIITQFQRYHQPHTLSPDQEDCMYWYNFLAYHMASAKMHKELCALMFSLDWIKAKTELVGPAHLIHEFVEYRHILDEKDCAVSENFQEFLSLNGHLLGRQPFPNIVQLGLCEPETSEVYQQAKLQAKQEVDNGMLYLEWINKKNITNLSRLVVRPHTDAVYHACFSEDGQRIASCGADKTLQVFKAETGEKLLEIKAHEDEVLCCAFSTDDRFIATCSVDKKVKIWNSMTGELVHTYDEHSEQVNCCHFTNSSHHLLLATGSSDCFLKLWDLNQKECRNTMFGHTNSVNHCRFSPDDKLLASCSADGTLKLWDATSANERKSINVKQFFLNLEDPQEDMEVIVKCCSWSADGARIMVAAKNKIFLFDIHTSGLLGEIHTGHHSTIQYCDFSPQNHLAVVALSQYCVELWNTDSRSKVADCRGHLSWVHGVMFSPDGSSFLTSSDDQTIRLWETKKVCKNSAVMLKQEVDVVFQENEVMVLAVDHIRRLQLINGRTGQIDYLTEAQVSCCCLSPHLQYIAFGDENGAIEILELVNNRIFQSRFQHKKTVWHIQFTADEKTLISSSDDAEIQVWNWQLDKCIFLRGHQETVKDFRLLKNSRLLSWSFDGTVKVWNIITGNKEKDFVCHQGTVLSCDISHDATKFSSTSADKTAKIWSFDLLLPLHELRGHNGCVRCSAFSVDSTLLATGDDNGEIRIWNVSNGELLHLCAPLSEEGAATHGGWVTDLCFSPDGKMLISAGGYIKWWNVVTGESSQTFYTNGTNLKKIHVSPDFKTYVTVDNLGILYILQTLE

[7] = viability of PTEN-deleted HCT116 cells – cell-based, HCT116 PTEN knockout, dose response (AID 1047); type: functional;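 note: HCT116 colon tumor cells with PTEN knocked out; cells exposed to compound for 60 hours before readout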
[8] = target: T2, Microphthalmia-associated transcription factor (Homo sapiens, UniProt O75030); assay: reducers of TRPM1 reporter luminescence, concentration series – cell-based, SK-MEL-5, cherry-picked, set 3, MITF inhibitor project, dose response (AID 493073); type: functional;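 note: SK-MEL-5 melanoma cells with luciferase driven by the MITF target TRPM1 promoter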
T2 sequence (O75030 whole entry): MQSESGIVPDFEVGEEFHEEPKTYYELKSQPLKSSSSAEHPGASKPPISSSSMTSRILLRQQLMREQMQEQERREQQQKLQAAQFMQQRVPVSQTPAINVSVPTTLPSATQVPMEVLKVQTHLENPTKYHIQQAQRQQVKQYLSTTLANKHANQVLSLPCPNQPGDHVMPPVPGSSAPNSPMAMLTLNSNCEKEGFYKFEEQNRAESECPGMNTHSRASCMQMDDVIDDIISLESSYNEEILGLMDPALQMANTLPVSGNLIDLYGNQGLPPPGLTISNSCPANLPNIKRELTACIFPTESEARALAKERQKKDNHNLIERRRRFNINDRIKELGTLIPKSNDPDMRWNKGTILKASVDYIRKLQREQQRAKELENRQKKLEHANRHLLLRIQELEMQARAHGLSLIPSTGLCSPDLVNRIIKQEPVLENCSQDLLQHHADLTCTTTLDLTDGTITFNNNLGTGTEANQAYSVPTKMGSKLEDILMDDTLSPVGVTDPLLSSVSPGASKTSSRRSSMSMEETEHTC

Ephrin type-A receptor 4 = Ephrin type-A receptor 4 (Mus musculus, UniProt Q03137); assay: EphA4 ligand-binding antagonists – biochemical, colorimetric, mouse EphA4, primary screen (AID 689); type: functional
[9] = target: T3, Zinc finger protein mex-5 (Caenorhabditis elegans, UniProt Q9XUB2); assay: potency of MEX-5 RNA-binding blockers – biochemical, C. elegans, fluorescence polarization, dose response (AID 1960)
T3 sequence (Q9XUB2 whole entry): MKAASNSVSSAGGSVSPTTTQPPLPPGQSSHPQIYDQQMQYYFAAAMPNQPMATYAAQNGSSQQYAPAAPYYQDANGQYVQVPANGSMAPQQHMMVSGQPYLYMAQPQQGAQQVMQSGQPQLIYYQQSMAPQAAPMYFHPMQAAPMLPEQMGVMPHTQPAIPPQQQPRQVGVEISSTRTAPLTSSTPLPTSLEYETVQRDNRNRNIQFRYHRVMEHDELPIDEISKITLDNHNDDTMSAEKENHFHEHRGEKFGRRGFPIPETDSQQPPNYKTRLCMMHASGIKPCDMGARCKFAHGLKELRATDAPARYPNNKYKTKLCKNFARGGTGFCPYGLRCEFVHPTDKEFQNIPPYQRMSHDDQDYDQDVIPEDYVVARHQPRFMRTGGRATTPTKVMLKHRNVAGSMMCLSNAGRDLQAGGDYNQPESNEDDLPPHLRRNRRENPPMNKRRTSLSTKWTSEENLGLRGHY

[10] = target: T4, RNA-binding protein pos-1 (Caenorhabditis elegans, UniProt G5EF15); assay: disruptors of C. elegans POS-1 RNA interaction – biochemical, fluorescence polarization, dose response (AID 1964);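 note: purified POS-1 fused to maltose binding protein made in E. coli; potency of compounds blocking POS-1 binding to fluorescent RNA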
T4 sequence (G5EF15 whole entry): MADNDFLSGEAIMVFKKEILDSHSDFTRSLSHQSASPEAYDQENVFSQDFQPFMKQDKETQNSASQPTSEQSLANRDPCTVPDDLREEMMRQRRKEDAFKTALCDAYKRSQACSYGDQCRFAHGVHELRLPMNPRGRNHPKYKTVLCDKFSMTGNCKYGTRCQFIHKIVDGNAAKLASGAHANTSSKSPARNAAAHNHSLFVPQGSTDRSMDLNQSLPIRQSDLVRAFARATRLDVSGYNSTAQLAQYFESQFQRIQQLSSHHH

Genome polyprotein = Genome polyprotein (Hepatitis C virus, UniProt Q2Q167); assay: disruption of hepatitis C core self-association – biochemical, TR-FRET, dose response (AID 2159); set-up: species or system Hepacivirus hominis;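 note: blocks dimerization of HCV core protein measured by TR-FRET between tagged core106 pairs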
[11] = target: T5, Kappa-type opioid receptor (Homo sapiens, UniProt P41145); type: functional
T5 sequence (P41145 whole entry): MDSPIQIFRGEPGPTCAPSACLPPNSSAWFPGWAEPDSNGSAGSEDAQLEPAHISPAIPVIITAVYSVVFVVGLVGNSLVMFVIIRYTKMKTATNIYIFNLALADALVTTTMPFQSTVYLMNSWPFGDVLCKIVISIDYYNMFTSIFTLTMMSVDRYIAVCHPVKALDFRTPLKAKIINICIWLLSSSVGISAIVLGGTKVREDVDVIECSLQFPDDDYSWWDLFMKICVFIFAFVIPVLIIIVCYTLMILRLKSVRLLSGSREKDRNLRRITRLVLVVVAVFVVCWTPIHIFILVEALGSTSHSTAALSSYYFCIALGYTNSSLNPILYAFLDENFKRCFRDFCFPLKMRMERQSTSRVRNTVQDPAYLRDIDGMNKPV

[12] = HIV-1 Vif–A3G interaction blockers – biochemical, TR-FRET, GST-Vif 1-94, biotin-A3G peptide, dose response retest, primary screen (AID 1117319); type: functional;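 note: TR-FRET signal of purified GST-Vif binding a biotinylated A3G peptide; inhibitors lower the FRET signal by blocking Vif and A3G binding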
[13] = target: T5, Kappa-type opioid receptor; type: functional; remark: listed apart in the source
Beta-galactosidase = Beta-galactosidase (Escherichia coli, UniProt Q8VNN2); type: functional
Vero = assay: mammalian cell viability reduction – secondary assay, cytotoxicity control for West Nile virus antiviral project, dose response (AID 1650); type: functional; conditions: Chlorocebus sabaeus
[14] = target: Heat shock protein HSP 90-alpha (Homo sapiens, UniProt P07900); type: functional, organism-based
[15] = target: T6, Heat shock factor protein 1 (Mus musculus, UniProt P38532); assay: enhancement of HSF1-driven luciferase signal – cell-based, NIH3T3, luminescence, dose retest, confirmation (AID 435004); type: functional;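 note: stress induced by proteasome inhibitor MG132 added 30 min after compound; luciferase reporter driven by HSF1 response element in NIH3T3 cells; actives raise luminescence as potentiators of the MG132 stress response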
T6 sequence (P38532 whole entry): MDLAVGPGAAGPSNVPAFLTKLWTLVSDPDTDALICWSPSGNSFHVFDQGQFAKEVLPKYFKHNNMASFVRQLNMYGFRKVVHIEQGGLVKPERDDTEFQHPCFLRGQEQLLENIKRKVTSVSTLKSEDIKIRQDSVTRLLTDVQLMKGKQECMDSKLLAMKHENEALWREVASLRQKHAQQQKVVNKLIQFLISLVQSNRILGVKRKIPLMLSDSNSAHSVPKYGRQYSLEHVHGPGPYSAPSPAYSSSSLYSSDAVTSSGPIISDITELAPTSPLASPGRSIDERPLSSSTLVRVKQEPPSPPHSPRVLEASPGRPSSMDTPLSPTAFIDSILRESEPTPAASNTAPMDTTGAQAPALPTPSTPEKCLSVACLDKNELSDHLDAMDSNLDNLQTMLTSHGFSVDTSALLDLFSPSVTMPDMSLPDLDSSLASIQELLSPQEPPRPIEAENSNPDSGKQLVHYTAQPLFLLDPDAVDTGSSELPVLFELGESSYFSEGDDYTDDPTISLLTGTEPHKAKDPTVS

[16] = target: Luciferin 4-monooxygenase (Photinus pyralis, UniProt P08659); assay: Counter Screen for Luciferase-based Assay Positives. [Related pubchem assays: 620, 618, 411 ]
Nonstructural protein 1 = Nonstructural protein 1 (Influenza A virus, UniProt Q194T2); type: functional, Influenza A virus (A/California/07/2009(H1N1))
[17] = viability loss in Vero cells – cytotoxicity control for Vif-APOBEC3G degradation inhibitor project, dose response (AID 1117358); type: functional; conditions: Vero
CHO = CHO cell viability loss, potency – luminescence, cytotoxicity control for TLR9-MyD88 binding inhibitor project, dose response (AID 588339); type: functional, cell-based, hamster; conditions: Cricetulus griseus;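 note: CHO cells stably coexpressing TLR9 and MyD88 fusions from primary screen; compound exposure lasted 48 hours before viability readout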
HT-1080 = assay: HT1080 cell viability loss – fluorescence readout (AID 620); type: functional, cell-based; conditions: Homo sapiens
[18] = HEK-293T viability loss after treatment – luminescence, T-cell screen hits, cytotoxicity control for TCR NF-kB inhibitor project, dose response (AID 489026); type: functional, cell-based;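 note: cells exposed to compound about 14 hours before the viability readout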
Exodeoxyribonuclease V = Exodeoxyribonuclease V (Escherichia coli (strain K12), UniProt P04993+P07648+P08394); assay: RecBCD inhibition via phage-restricted bacterial growth – absorbance, V66 E. coli, mutant T4 phage, counter-screen for AddAB inhibitor project, dose response (AID 492957); type: functional, cell-based, Escherichia coli str. K-12 substr. MG1655
Sequence of Exodeoxyribonuclease V (P04993 whole entry): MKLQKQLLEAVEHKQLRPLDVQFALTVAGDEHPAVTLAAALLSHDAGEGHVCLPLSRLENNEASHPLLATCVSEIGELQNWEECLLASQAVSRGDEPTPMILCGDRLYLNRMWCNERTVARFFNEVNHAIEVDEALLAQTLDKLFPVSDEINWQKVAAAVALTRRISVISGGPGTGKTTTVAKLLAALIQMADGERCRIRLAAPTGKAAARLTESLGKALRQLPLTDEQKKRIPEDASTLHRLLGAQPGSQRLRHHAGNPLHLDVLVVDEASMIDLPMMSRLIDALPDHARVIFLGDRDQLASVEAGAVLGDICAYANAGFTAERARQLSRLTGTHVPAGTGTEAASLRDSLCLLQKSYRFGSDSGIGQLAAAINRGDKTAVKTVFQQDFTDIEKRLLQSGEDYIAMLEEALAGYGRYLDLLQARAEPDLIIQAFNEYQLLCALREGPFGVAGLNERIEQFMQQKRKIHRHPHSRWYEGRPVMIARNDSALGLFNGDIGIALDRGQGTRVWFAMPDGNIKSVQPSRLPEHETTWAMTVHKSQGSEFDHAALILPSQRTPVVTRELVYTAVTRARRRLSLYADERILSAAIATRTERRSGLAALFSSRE
Sequence of Exodeoxyribonuclease V (P07648 whole entry): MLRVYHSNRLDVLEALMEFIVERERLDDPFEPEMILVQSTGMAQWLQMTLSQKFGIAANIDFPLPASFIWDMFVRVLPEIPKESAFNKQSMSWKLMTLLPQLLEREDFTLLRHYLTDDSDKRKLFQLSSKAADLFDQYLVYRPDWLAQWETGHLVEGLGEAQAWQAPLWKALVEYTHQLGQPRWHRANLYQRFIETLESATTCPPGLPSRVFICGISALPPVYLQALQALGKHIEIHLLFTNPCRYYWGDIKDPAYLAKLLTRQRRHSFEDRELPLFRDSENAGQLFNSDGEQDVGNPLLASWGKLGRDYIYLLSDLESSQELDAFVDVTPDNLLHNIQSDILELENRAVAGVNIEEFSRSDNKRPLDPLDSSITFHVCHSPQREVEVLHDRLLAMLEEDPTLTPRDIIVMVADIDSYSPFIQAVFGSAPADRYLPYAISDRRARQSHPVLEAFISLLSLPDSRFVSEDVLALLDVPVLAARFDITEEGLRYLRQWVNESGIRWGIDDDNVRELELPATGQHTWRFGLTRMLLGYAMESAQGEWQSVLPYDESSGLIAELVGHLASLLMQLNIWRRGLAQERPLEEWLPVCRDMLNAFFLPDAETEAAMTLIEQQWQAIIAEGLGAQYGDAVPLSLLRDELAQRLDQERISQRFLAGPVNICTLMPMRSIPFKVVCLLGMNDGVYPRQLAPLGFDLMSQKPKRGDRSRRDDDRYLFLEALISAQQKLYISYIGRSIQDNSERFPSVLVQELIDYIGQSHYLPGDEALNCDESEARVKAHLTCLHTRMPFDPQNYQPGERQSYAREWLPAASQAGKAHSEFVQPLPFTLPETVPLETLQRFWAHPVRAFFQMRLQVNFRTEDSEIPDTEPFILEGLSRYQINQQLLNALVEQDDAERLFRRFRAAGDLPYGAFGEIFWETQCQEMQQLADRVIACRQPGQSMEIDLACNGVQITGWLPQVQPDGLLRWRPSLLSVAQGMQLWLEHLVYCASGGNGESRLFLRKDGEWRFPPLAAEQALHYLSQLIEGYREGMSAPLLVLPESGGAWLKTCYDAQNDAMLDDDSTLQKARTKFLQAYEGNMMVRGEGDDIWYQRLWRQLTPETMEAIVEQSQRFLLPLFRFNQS
Sequence of Exodeoxyribonuclease V (P08394 whole entry): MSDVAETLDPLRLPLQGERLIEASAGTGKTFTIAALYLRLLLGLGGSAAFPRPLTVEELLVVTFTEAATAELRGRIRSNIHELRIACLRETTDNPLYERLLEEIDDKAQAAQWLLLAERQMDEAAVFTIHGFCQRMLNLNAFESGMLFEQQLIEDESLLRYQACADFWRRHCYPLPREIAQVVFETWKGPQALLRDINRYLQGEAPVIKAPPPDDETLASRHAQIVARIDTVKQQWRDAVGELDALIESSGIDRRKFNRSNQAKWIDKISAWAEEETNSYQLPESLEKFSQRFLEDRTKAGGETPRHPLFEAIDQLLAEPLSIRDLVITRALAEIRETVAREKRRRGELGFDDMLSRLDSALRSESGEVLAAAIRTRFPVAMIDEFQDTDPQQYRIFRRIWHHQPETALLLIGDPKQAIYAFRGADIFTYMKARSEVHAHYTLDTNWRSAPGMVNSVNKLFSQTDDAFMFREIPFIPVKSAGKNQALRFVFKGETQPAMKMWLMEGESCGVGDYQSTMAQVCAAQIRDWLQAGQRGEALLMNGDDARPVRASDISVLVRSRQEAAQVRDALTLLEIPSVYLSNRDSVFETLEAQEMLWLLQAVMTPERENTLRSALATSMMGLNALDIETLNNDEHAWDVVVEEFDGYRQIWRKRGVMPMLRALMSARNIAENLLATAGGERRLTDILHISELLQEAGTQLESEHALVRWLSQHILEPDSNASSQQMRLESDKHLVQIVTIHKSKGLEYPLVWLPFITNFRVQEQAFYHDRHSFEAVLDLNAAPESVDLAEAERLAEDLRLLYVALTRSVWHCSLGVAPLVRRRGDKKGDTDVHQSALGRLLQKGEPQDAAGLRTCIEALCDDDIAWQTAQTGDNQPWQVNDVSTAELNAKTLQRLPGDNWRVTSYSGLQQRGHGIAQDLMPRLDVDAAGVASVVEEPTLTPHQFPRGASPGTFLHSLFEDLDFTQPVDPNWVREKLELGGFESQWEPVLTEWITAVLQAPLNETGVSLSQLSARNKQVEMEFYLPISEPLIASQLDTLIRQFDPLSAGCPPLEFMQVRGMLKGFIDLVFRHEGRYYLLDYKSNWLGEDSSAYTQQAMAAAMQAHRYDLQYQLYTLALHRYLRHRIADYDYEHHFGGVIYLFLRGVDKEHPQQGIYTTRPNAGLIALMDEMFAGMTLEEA

[19] = target: 5-hydroxytryptamine receptor 1A (Homo sapiens, UniProt P08908); type: functional
[20] = Counterscreen for AddAB inhibitors: absorbance-based bacterial cell-based high throughput dose response assay for inhibitors of bacterial viability. [Related pubchem assays (depositor defined):AID435030, AID449728, AID449731, AID488942, AID488955, AID488956]; type: functional
[21] = target: Voltage-gated inwardly rectifying potassium channel KCNH2 (Homo sapiens, UniProt Q12809); conditions: Potency;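 note: confirmatory quantitative high-throughput screen measuring inhibition of hERG channel activity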

Sequence of 72 kDa type IV collagenase (P08253 whole entry): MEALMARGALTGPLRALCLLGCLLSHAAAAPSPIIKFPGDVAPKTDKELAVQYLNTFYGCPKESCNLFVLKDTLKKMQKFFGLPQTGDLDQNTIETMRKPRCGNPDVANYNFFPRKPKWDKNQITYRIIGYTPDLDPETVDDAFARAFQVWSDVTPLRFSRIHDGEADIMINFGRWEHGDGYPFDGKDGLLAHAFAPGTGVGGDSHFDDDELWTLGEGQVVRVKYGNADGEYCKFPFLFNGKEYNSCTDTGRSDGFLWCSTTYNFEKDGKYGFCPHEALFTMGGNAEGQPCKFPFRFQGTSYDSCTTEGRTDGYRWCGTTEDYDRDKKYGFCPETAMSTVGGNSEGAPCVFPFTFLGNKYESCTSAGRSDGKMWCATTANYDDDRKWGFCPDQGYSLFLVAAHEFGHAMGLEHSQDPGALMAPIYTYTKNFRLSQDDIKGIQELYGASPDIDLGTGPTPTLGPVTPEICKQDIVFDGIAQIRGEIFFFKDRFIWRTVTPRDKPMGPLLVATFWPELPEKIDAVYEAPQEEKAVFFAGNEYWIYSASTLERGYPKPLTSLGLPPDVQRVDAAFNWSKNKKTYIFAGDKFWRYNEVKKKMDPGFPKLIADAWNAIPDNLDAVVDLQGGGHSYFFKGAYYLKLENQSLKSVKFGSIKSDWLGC

## CCOc1ccc2nc(NC3=NC(=O)CC(c4ccc(OC)cc4)N3)nc(C)c2c1 (stereo unspecified)
[1]
  IC50: > 100 µM (inactive)
[2]
  IC50: 5.85 µM (active)
[3]
  AC50: 8.71 µM (active)
[4]
  IC50: 22 µM (active)
Prothrombin
  IC50: 77.6 µM (active)
A-375
  AC50: 27.7 µM (active)
[5]
  EC50: 7.4 µM (active)
[6]
  IC50: 17.6 µM (active)
[7]
  EC50: 9.86 µM (active)
[8]
  AC50: 9.49 µM (active)

## Cc1cc(C)c2nc(N3CCCN(C(=O)c4ccco4)CC3)c(C#N)cc2c1
Ephrin type-A receptor 4
  IC50: 16.6 µM (active)

## O=C1CSC(=S)N1/N=C/c1ccc(Cl)c([N+](=O)[O-])c1
[9]
  EC50: 15.7 µM (active)
[10]
  EC50: 18.6 µM (active)
Genome polyprotein
  IC50: > 49.8 µM (not active)

## O=S1(=O)Nc2c(ccc3cccnc23)-c2ccccc21
[11]
  IC50: > 32 µM
[12]
  IC50: > 100 µM (active)
[13]
  IC50: 1.3 µM (active)
Beta-galactosidase
  EC50: > 31.5 µM (inactive)
Vero
  CC50: 4.21 µM (active)
[14]
  AC50: < 0.195 µM (active)
[15]
  EC50: 2.76 µM (active)
[16]
  EC50: 2.82 µM (active)
Nonstructural protein 1
  IC50: 3.63 µM (active)
[17]
  CC50: 13.8 µM (active)
CHO
  IC50: 1.77 µM (active)
HT-1080
  EC50: > 50 µM (not active)
[18]
  IC50: > 80 µM (inactive)

## Cc1cc(C(C)(C)C)cc(C)c1CC1=NCCN1 [XYLOMETAZOLINE HYDROCHLORIDE]
Exodeoxyribonuclease V
  IC50: > 119 µM (inactive)
[19]
  EC50: 0.129 µM (active)
[20]
  IC50: 29.7 µM (inactive)
[21]
  AC50: 14.1 µM (inconclusive)
